From US20260356819A1, “OXOISOINDOLINYL-SUBSTITUTED […] DERIVATIVE AND USE THEREOF” (GLUETACS THERAPEUTICS (SHANGHAI) CO., LTD., priority 2023, published 2026)

How the values were obtained:
Type in all cases: cell-based
Details in all cases: compounds at 50 nM and 500 nM
[1] = target: T1, IKZF2 (Homo sapiens, UniProt Q96SW2+Q9UKS7); test: Western blot degradation of IKZF2 in hPBMCs (24 h)
T1 construct: The supernatant was aspirated as the extracted total cell protein; endogenous in cells; host or cells: human peripheral blood mononuclear cells (hPBMCs)
Method in brief: (§1)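 hPBMCs (1×10^6 cells/mL) were treated with compound at 50 nM and 500 nM for 24 h, lysed in RIPA with protease inhibitors and analysed by SDS-PAGE/Western blot. Band grayscale, normalised to internal control, gave protein remaining (%); DC50 estimated versus DMSO bands.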

[2] = target: T2, WEE1 (Homo sapiens, UniProt P30291+Q96SW2); test: Western blot degradation of WEE1 in hPBMCs (24 h)
T2 construct: The supernatant was aspirated as the extracted total cell protein; endogenous in cells; host or cells: human peripheral blood mononuclear cells (hPBMCs)
Method in brief: as §1

[3] = target: T3, GSPT1 (Homo sapiens, UniProt P15170+Q96SW2); test: Western blot degradation of GSPT1 in hPBMCs (24 h)
T3 construct: The supernatant was aspirated as the extracted total cell protein; endogenous in cells; host or cells: human peripheral blood mononuclear cells (hPBMCs)
Method in brief: as §1

[4] = target: T4, IKZF1 (Homo sapiens, UniProt Q13422+Q96SW2); test: Western blot degradation of IKZF1 in hPBMCs (24 h)
T4 construct: The supernatant was aspirated as the extracted total cell protein; endogenous in cells; host or cells: human peripheral blood mononuclear cells (hPBMCs)
Method in brief: as §1

[5] = target: T5, IKZF3 (Homo sapiens, UniProt Q96SW2+Q9UKT9); test: Western blot degradation of IKZF3 in hPBMCs (24 h)
T5 construct: The supernatant was aspirated as the extracted total cell protein; endogenous in cells; host or cells: human peripheral blood mononuclear cells (hPBMCs)
Method in brief: as §1

[6] = target: T6, CK1α (Homo sapiens, UniProt P48729+Q96SW2); test: Western blot degradation of CK1α in hPBMCs (24 h)
T6 construct: The supernatant was aspirated as the extracted total cell protein; endogenous in cells; host or cells: human peripheral blood mononuclear cells (hPBMCs)
Method in brief: as §1

T3 sequence (P15170 whole entry): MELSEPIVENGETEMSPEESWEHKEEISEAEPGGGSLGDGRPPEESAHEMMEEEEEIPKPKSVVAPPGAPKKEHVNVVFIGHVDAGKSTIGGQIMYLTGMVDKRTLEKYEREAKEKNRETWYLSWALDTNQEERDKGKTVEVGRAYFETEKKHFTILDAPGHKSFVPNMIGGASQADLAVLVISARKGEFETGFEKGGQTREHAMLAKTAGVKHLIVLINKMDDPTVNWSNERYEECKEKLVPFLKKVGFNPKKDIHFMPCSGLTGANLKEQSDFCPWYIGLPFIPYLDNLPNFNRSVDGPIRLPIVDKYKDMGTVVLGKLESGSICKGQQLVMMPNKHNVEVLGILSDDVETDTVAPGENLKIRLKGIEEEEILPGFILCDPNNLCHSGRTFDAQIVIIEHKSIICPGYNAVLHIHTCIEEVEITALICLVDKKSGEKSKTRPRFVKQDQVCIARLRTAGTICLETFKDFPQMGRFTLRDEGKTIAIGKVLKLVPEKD
T3 sequence (Q96SW2 whole entry): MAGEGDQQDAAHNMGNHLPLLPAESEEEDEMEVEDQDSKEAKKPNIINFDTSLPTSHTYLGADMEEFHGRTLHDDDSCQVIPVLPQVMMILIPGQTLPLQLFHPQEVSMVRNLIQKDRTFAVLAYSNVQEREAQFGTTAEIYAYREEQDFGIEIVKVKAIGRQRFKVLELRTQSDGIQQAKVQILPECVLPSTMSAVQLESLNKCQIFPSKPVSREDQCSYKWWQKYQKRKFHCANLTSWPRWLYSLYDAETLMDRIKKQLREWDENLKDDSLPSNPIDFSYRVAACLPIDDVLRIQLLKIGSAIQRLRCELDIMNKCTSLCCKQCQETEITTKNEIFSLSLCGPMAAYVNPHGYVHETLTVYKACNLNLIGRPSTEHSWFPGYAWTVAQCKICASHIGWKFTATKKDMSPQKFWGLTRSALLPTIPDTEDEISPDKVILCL
T3 sequence (Q16531 whole entry partner): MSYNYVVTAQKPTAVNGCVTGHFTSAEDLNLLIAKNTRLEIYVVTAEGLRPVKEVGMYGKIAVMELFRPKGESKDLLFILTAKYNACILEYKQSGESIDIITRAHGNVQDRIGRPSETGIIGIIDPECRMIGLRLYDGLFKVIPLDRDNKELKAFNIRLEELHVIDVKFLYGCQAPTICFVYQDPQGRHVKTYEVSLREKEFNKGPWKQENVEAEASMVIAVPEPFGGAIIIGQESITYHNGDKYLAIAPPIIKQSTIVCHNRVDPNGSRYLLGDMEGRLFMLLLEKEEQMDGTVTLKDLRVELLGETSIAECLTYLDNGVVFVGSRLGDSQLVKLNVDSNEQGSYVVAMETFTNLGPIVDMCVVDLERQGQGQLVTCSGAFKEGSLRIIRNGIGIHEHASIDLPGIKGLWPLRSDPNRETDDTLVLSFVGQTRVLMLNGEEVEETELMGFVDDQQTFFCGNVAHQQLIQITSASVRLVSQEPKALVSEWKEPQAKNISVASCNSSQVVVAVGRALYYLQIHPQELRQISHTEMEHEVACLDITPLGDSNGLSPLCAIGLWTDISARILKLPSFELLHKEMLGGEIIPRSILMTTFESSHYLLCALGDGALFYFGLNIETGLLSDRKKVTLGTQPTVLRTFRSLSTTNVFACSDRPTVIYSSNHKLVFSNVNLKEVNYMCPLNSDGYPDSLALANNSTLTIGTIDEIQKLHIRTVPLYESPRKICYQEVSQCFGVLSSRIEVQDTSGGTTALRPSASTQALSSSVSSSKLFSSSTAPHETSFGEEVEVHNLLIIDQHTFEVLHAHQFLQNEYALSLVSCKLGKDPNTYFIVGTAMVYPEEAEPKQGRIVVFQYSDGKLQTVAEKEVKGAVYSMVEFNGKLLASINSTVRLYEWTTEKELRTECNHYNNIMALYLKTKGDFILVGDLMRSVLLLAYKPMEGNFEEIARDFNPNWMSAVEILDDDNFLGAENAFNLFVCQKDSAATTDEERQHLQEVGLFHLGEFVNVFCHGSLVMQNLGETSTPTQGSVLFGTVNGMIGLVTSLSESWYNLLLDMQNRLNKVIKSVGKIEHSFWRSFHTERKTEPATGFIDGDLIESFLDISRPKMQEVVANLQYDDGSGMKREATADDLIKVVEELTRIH
T6 sequence (P48729 whole entry): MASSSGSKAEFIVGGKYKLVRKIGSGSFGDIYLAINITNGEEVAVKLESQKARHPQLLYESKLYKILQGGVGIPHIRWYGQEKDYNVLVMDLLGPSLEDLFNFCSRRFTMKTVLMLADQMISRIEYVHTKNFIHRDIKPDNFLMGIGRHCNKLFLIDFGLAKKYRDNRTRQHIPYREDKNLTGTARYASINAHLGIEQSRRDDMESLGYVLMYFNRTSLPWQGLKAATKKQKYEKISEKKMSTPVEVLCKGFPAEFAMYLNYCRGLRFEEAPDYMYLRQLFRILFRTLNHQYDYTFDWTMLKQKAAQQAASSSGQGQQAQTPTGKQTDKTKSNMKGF
T6 sequence (Q96SW2 whole entry): as the sequence (Q96SW2 whole entry) above
T6 sequence (Q16531 whole entry partner): as the sequence (Q16531 whole entry partner) above
T2 sequence (P30291 whole entry): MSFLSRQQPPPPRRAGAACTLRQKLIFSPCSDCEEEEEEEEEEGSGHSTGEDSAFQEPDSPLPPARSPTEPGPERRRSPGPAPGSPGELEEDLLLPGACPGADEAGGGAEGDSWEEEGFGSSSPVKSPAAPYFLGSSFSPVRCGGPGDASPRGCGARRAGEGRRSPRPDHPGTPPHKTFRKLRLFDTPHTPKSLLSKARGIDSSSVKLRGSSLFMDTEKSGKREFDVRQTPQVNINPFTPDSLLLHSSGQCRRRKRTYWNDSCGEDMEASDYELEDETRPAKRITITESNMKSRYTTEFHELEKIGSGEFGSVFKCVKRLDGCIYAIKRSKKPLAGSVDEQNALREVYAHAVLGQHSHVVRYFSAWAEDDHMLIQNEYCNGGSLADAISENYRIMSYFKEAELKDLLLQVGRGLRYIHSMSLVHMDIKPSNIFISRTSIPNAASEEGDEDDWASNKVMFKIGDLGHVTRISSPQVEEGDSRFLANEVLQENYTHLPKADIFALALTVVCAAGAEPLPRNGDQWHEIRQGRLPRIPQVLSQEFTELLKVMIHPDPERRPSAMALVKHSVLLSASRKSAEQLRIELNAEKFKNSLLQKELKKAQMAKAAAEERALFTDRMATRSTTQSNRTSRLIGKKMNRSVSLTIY
T2 sequence (Q96SW2 whole entry): as the sequence (Q96SW2 whole entry) above
T2 sequence (Q16531 whole entry partner): as the sequence (Q16531 whole entry partner) above
T1 sequence (Q9UKS7 whole entry): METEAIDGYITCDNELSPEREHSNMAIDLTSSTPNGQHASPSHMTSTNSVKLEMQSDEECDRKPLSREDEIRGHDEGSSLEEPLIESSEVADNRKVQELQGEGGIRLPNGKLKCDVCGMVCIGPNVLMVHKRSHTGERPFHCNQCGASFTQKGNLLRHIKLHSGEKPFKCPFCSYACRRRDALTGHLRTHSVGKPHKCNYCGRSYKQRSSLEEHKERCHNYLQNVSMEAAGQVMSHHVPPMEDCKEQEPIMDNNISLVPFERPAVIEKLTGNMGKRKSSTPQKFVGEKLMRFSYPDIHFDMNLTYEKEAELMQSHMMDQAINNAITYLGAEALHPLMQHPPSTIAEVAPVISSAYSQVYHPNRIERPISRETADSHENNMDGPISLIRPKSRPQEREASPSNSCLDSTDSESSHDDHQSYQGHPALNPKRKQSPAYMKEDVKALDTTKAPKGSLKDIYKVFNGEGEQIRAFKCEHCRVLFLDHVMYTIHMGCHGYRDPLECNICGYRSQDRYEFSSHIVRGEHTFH
T1 sequence (Q96SW2 whole entry): as the sequence (Q96SW2 whole entry) above
T1 sequence (Q16531 whole entry partner): as the sequence (Q16531 whole entry partner) above
T4 sequence (Q13422 whole entry): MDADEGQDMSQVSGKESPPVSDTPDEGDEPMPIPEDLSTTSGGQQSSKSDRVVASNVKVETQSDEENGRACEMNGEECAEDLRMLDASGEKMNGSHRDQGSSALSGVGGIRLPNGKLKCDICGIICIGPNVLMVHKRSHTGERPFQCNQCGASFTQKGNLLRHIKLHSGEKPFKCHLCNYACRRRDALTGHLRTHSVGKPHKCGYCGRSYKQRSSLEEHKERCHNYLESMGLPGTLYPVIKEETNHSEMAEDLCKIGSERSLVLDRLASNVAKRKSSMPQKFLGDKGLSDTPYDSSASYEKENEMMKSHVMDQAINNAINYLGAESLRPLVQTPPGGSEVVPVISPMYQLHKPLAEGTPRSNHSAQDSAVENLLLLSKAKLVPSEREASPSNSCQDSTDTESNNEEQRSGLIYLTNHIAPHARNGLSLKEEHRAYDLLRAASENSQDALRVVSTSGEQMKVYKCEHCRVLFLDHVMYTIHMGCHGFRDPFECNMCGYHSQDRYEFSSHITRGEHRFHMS
T4 sequence (Q96SW2 whole entry): as the sequence (Q96SW2 whole entry) above
T4 sequence (Q16531 whole entry partner): as the sequence (Q16531 whole entry partner) above

Row | Structure (SMILES) | IKZF2 substrate protein remaining % [1] | WEE1 substrate protein remaining % [2] | GSPT1 substrate protein remaining % [3] | IKZF1 substrate protein remaining % [4] | IKZF3 substrate protein remaining % [5] | CK1α substrate protein remaining % [6]
1 | CC(C)c1cc2c(N3CCN(Cc4ccc5c(c4)CN(N4CCC(=O)NC4=O)C5=O)CC3)ncnc2s1 [GT-08060, 1-(5-((4-(6-isopropylthieno[2,3-d]pyrimidin-4-yl)piperazin-1-yl)methyl)-1-oxoisoindolin-2-yl)dihydropyrimidine-2,4(1H,3H)-dione] | A (0% ≤ substrate protein remaining % ≤80%) | B (80%< substrate protein remaining % ≤100%) | B (80%< substrate protein remaining % ≤100%) | B (80%< substrate protein remaining % ≤100%) | A (0% ≤ substrate protein remaining % ≤80%) | B (80%< substrate protein remaining % ≤100%)
2 | Cc1sc2ncnc(N3CCN(Cc4ccc5c(c4)CN(N4CCC(=O)NC4=O)C5=O)CC3)c2c1C [GT-08061, 1-(5-((4-(5,6-dimethylthieno[2,3-d]pyrimidin-4-yl)piperazin-1-yl)methyl)-1-oxoisoindolin-2-yl)dihydropyrimidine-2,4(1H,3H)-dione] | A (0% ≤ substrate protein remaining % ≤80%) | B (80%< substrate protein remaining % ≤100%) | B (80%< substrate protein remaining % ≤100%) | B (80%< substrate protein remaining % ≤100%) | A (0% ≤ substrate protein remaining % ≤80%) | B (80%< substrate protein remaining % ≤100%)
3 | Cc1sc2ncnc(N3CCCN(Cc4ccc5c(c4)CN(N4CCC(=O)NC4=O)C5=O)CC3)c2c1C [GT-08062, 1-(5-((4-(5,6-dimethylthieno[2,3-d]pyrimidin-4-yl)-1,4-diazepan-1-yl)methyl)-1-oxoisoindolin-2-yl)dihydropyrimidine-2,4(1H,3H)-dione] | A (0% ≤ substrate protein remaining % ≤80%) | B (80%< substrate protein remaining % ≤100%) | B (80%< substrate protein remaining % ≤100%) | B (80%< substrate protein remaining % ≤100%) | A (0% ≤ substrate protein remaining % ≤80%) | B (80%< substrate protein remaining % ≤100%)
4 | O=C1CCN(N2Cc3cc(CN4CCN(c5ncnc6sc(Br)cc56)CC4)ccc3C2=O)C(=O)N1 [GT-08063, 1-(5-((4-(6-bromothieno[2,3-d]pyrimidin-4-yl)piperazin-1-yl)methyl)-1-oxoisoindolin-2-yl)dihydropyrimidine-2,4(1H,3H)-dione] | A (0% ≤ substrate protein remaining % ≤80%) | B (80%< substrate protein remaining % ≤100%) | B (80%< substrate protein remaining % ≤100%) | B (80%< substrate protein remaining % ≤100%) | A (0% ≤ substrate protein remaining % ≤80%) | B (80%< substrate protein remaining % ≤100%)
5 | O=C1CCN(N2Cc3cc(CN4CCN(c5ncnc6sc(-c7ccccc7)cc56)CC4)ccc3C2=O)C(=O)N1 [GT-08064, 1-(1-oxo-5-((4-(6-phenylthieno[2,3-d]pyrimidin-4-yl)piperazin-1-yl)methyl)isoindolin-2-yl)dihydropyrimidine-2,4(1H,3H)-dione] | A (0% ≤ substrate protein remaining % ≤80%) | B (80%< substrate protein remaining % ≤100%) | B (80%< substrate protein remaining % ≤100%) | B (80%< substrate protein remaining % ≤100%) | B (80%< substrate protein remaining % ≤100%) | B (80%< substrate protein remaining % ≤100%)
6 | O=C1CCN(N2Cc3cc(CN4CCN(c5ncnc6scc(-c7ccccc7)c56)CC4)ccc3C2=O)C(=O)N1 [GT-08065, 1-(1-oxo-5-((4-(5-phenylthieno[2,3-d]pyrimidin-4-yl)piperazin-1-yl)methyl)isoindolin-2-yl)dihydropyrimidine-2,4(1H,3H)-dione] | A (0% ≤ substrate protein remaining % ≤80%) | B (80%< substrate protein remaining % ≤100%) | B (80%< substrate protein remaining % ≤100%) | B (80%< substrate protein remaining % ≤100%) | B (80%< substrate protein remaining % ≤100%) | B (80%< substrate protein remaining % ≤100%)
7 | Cc1nc(N2CCN(Cc3ccc4c(c3)CN(N3CCC(=O)NC3=O)C4=O)CC2)c2c(-c3ccccc3)csc2n1 [GT-08066, 1-(5-((4-(2-methyl-5-phenylthieno[2,3-d]pyrimidin-4-yl)piperazin-1-yl)methyl)-1-oxoisoindolin-2-yl)dihydropyrimidine-2,4(1H,3H)-dione] | A (0% ≤ substrate protein remaining % ≤80%) | B (80%< substrate protein remaining % ≤100%) | B (80%< substrate protein remaining % ≤100%) | B (80%< substrate protein remaining % ≤100%) | B (80%< substrate protein remaining % ≤100%) | A (0% ≤ substrate protein remaining % ≤80%)
8 | Cc1nc(N2CCN(Cc3ccc4c(c3)CN(N3CCC(=O)NC3=O)C4=O)CC2)c2ccsc2n1 [GT-08067, 1-(5-((4-(2-methylthieno[2,3-d]pyrimidin-4-yl)piperazin-1-yl)methyl)-1-oxoisoindolin-2-yl)dihydropyrimidine-2,4(1H,3H)-dione] | A (0% ≤ substrate protein remaining % ≤80%) | B (80%< substrate protein remaining % ≤100%) | B (80%< substrate protein remaining % ≤100%) | B (80%< substrate protein remaining % ≤100%) | B (80%< substrate protein remaining % ≤100%) | B (80%< substrate protein remaining % ≤100%)
9 | Cc1nc(N2CCN(Cc3ccc4c(c3)CN(N3CCC(=O)NC3=O)C4=O)CC2)c2c3c(sc2n1)CCCC3 [GT-08068, 1-(5-((4-(2-methyl-5,6,7,8-tetrahydrobenzo[4,5]thieno[2,3-d]pyrimidin-4-yl)piperazin-1-yl)methyl)-1-oxoisoindolin-2-yl)dihydropyrimidine-2,4(1H,3H)-dione] | A (0% ≤ substrate protein remaining % ≤80%) | B (80%< substrate protein remaining % ≤100%) | B (80%< substrate protein remaining % ≤100%) | B (80%< substrate protein remaining % ≤100%) | B (80%< substrate protein remaining % ≤100%) | A (0% ≤ substrate protein remaining % ≤80%)
10 | O=C1CCN(N2Cc3cc(CN4CCN(c5ncnc6sc7c(c56)CCCC7)CC4)ccc3C2=O)C(=O)N1 [GT-08077, 1-(1-oxo-5-((4-(5,6,7,8-tetrahydrobenzo[4,5]thieno[2,3-d]pyrimidin-4-yl)piperazin-1-yl)methyl)isoindolin-2-yl)dihydropyrimidine-2,4(1H,3H)-dione] | B (80%< substrate protein remaining % ≤100%) | B (80%< substrate protein remaining % ≤100%) | A (0% ≤ substrate protein remaining % ≤80%) | B (80%< substrate protein remaining % ≤100%) | B (80%< substrate protein remaining % ≤100%) | A (0% ≤ substrate protein remaining % ≤80%)
11 | O=C1CCN(N2Cc3cc(CN4CCN(c5ncnc6sc7c(c56)CCC7)CC4)ccc3C2=O)C(=O)N1 [GT-08079, 1-(5-((4-(6,7-dihydro-5H-cyclopenta[4,5]thieno[2,3-d]pyrimidin-4-yl)piperazin-1-yl)methyl)-1-oxoisoindolin-2-yl)dihydropyrimidine-2,4(1H,3H)-dione] | B (80%< substrate protein remaining % ≤100%) | A (0% ≤ substrate protein remaining % ≤80%) | A (0% ≤ substrate protein remaining % ≤80%) | B (80%< substrate protein remaining % ≤100%) | B (80%< substrate protein remaining % ≤100%) | A (0% ≤ substrate protein remaining % ≤80%)
12 | Cc1nc(N2CCN(Cc3ccc4c(c3)CN(N3CCC(=O)NC3=O)C4=O)CC2)c2c3c(sc2n1)CCC3 [GT-08080, 1-(5-((4-(2-methyl-6,7-dihydro-5H-cyclopenta[4,5]thieno[2,3-d]pyrimidin-4-yl)piperazin-1-yl)methyl)-1-oxoisoindolin-2-yl)dihydropyrimidine-2,4(1H,3H)-dione] | B (80%< substrate protein remaining % ≤100%) | A (0% ≤ substrate protein remaining % ≤80%) | A (0% ≤ substrate protein remaining % ≤80%) | B (80%< substrate protein remaining % ≤100%) | B (80%< substrate protein remaining % ≤100%) | A (0% ≤ substrate protein remaining % ≤80%)
